The values below come from PubChem BioAssay (NCI).

Among the test systems are LOX IMVI melanoma; A498 renal; BT-549 breast; HOP-92 NSCLC; MDA-MB-435; NCI-H460 lung; U251 CNS; A549 NSCLC; SNB-19 CNS; T-47D breast.
Common to all, as to assay: NCI tumour cell line growth inhibition, 48 h

Molecules are shown by their SMILES.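 Compound exposure: 48 hours, 5 concentrations, 96-well plates. GI50 is the concentration that inhibits growth by half. TGI marks complete inhibition of growth.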 Bounds are passed on as bounds.

For the compound `CCN1C(=O)N(CC)C2C1NN=c1s/c(=C\c3ccc(F)cc3)c(=O)n12` (stereo not drawn), the GI50 with LOX IMVI melanoma was 0.338 µM; in the test with A498 renal, 0.0394 µM; in the test with BT-549 breast, 0.759 µM; in the test on HOP-92 NSCLC it was 7.43 µM; with MDA-MB-435 it was 0.0317 µM; with NCI-H460 lung it was 0.218 µM. Moreover, the GI50 was 0.241 µM with U251 CNS, 0.347 µM with A549 NSCLC, 0.374 µM with SNB-19 CNS and 30.8 µM with T-47D breast. Besides, the TGI in the test on LOX IMVI melanoma was over 100 µM; in the test on A498 renal it was 0.33 µM; with BT-549 breast it was over 26.1 µM; in the test with HOP-92 NSCLC, over 100 µM; in the test on MDA-MB-435 it was 0.121 µM; with NCI-H460 lung, over 100 µM. Besides, the TGI in the test with U251 CNS, with A549 NSCLC, in the test on SNB-19 CNS and in the test on T-47D breast was over 100 µM in each case.

`CSc1ccc(C2=NN(C(C)=O)C(c3ccc(-c4ccc(Cl)cc4)o3)C2)cc1` (stereo not drawn): the GI50 with LOX IMVI melanoma is 32.8 µM; with A498 renal it was 26 µM; with BT-549 breast, 76.4 µM; in the test on HOP-92 NSCLC, 22.7 µM; in the test on MDA-MB-435 it was 29.2 µM; with NCI-H460 lung, 40 µM. The GI50 is 31.3 µM in the test on U251 CNS, 35.2 µM with A549 NSCLC, over 100 µM in the test with SNB-19 CNS and 17.9 µM in the test on T-47D breast. Further, the TGI with LOX IMVI melanoma was over 100 µM; in the test on A498 renal it was 48 µM; in the test on BT-549 breast it was over 100 µM; with HOP-92 NSCLC, 80.1 µM; in the test with MDA-MB-435 it was over 100 µM; with NCI-H460 lung, over 100 µM. Further, the TGI in the test on U251 CNS was over 100 µM; in the test with A549 NSCLC it was over 100 µM; with SNB-19 CNS, over 100 µM; with T-47D breast it was 79.6 µM.

On to `COC(=O)c1cc(-c2ccc(OC)c(OC)c2)[nH]c1N/N=C/c1c(Cl)cccc1Cl`, for which the GI50 in the test on LOX IMVI melanoma was 0.837 µM; in the test with A498 renal it was 0.532 µM; in the test on BT-549 breast, 0.887 µM; in the test on HOP-92 NSCLC, 0.944 µM; in the test with MDA-MB-435 it was 0.127 µM; in the test with NCI-H460 lung, 0.379 µM. The GI50 with U251 CNS is 0.671 µM; with A549 NSCLC, 0.948 µM; in the test with SNB-19 CNS, 0.673 µM; in the test with T-47D breast it was 3.99 µM. Further, the TGI with LOX IMVI melanoma came out at 13 µM; in the test on A498 renal it was 3.8 µM; in the test with BT-549 breast, 3.48 µM; with HOP-92 NSCLC it was 5.06 µM; in the test with MDA-MB-435, 0.562 µM; in the test on NCI-H460 lung it was 1.85 µM. Besides, the TGI in the test with U251 CNS is 2.43 µM; in the test with A549 NSCLC, 8.28 µM; in the test with SNB-19 CNS, 6.98 µM; with T-47D breast, 92.5 µM.

`COc1cc(/C=C/c2ccc3c(Br)cc(Br)c(O)c3n2)ccc1O`: the GI50 with LOX IMVI melanoma is 0.977 µM; in the test with A498 renal, 9.43 µM; with BT-549 breast, 2.61 µM; in the test with HOP-92 NSCLC, 4.77 µM; in the test on MDA-MB-435, 3.38 µM; with NCI-H460 lung, 0.446 µM. Moreover, the GI50 in the test with U251 CNS was 0.636 µM; in the test with A549 NSCLC it was 1.21 µM; in the test with SNB-19 CNS it was 2.67 µM; in the test with T-47D breast, 2.13 µM. Moreover, the TGI was found to be 11.4 µM with LOX IMVI melanoma; 21.8 µM with A498 renal; 13.6 µM in the test with BT-549 breast; 20.8 µM in the test with HOP-92 NSCLC; 19.6 µM with MDA-MB-435; 11.5 µM with NCI-H460 lung. The TGI in the test with U251 CNS was 10.9 µM; in the test with A549 NSCLC it was 12.9 µM; with SNB-19 CNS, 15.2 µM; in the test on T-47D breast, 14.7 µM.

As to `CCc1c(C)nc2sc3c(N)ncnc3c2c1C`, the GI50 in the test with LOX IMVI melanoma, with A498 renal, in the test with BT-549 breast, with HOP-92 NSCLC, with MDA-MB-435 and in the test on NCI-H460 lung was over 25 µM in each case. In addition, the GI50 with U251 CNS, in the test with A549 NSCLC, with SNB-19 CNS and in the test on T-47D breast was over 25 µM throughout. In addition, the TGI with LOX IMVI melanoma, in the test on A498 renal, in the test with BT-549 breast, with HOP-92 NSCLC, with MDA-MB-435 and in the test on NCI-H460 lung was over 25 µM each time. The TGI in the test with U251 CNS, in the test with A549 NSCLC, in the test on SNB-19 CNS and in the test on T-47D breast was over 25 µM in each case.

For `Cn1ccnc1Oc1ccc(Cl)cc1`, the TGI with LOX IMVI melanoma is 36.6 µM; in the test with A498 renal, 46.4 µM; in the test on BT-549 breast, 65.7 µM; in the test on HOP-92 NSCLC, 24.4 µM; in the test on MDA-MB-435, 25.1 µM; with NCI-H460 lung, over 100 µM. Further, the TGI in the test with U251 CNS was 46.7 µM; in the test with A549 NSCLC it was over 100 µM; in the test on SNB-19 CNS, over 100 µM; in the test on T-47D breast, 14.3 µM.

On to `c1cc(N2CCN(c3ccc(C4=NCCCN4)cc3)CC2)ccc1C1=NCCCN1`, for which the TGI in the test with LOX IMVI melanoma is over 77.9 µM; with A498 renal it was over 100 µM; in the test with BT-549 breast, over 100 µM; with HOP-92 NSCLC, over 100 µM; in the test on MDA-MB-435 it was over 20.3 µM; in the test with NCI-H460 lung it was over 100 µM. In addition, the TGI with U251 CNS, with A549 NSCLC, with SNB-19 CNS and in the test with T-47D breast was over 100 µM each time. In addition, the GI50 was 29.2 µM in the test on A498 renal; over 100 µM in the test with BT-549 breast; 73 µM in the test with HOP-92 NSCLC; over 58.6 µM in the test with NCI-H460 lung; over 74.6 µM in the test with U251 CNS; over 80.6 µM with A549 NSCLC. Further, the GI50 was over 71.2 µM in the test with SNB-19 CNS and over 100 µM in the test with T-47D breast.

For the compound `Oc1c(-c2cc(C(F)(F)F)[nH]n2)cc(Cl)c(OCc2ccc(Cl)cc2)c1-c1ccc(Cl)c(C(F)(F)F)c1`, the GI50 in the test with LOX IMVI melanoma is 0.967 µM; in the test with A498 renal, 0.0996 µM; in the test on BT-549 breast, 0.624 µM; with HOP-92 NSCLC it was 0.111 µM; in the test on MDA-MB-435, 1.06 µM; with NCI-H460 lung, 0.361 µM. The GI50 in the test with U251 CNS is 0.5 µM; with A549 NSCLC, 1.24 µM; in the test on SNB-19 CNS, 0.565 µM; in the test with T-47D breast, 0.147 µM. The TGI in the test on LOX IMVI melanoma was 2.9 µM; in the test on A498 renal, 0.484 µM; with BT-549 breast it was 2.16 µM; in the test with HOP-92 NSCLC, 0.542 µM; in the test with MDA-MB-435 it was 4.11 µM; in the test on NCI-H460 lung it was 2.57 µM. Moreover, the TGI in the test on U251 CNS is 5.76 µM; with A549 NSCLC, 6.39 µM; in the test with SNB-19 CNS, 6.62 µM; in the test on T-47D breast it was 1.53 µM.
